Data taken from ChEMBL document CHEMBL3507680, “University of Dundee, Gates Library screen for HepG2 cell viability”.

Assay: Human HepG2 cell viability assay in 384 well format
Format: toxicity, cell-based
Parameters: dose 125 nL, time 70.5 hour; cytotoxicity at 70.5 h: concentration not given beside the values
Conditions: HepG2 cells, read-out: Inhibition

| Compound | cytotoxicity at 70.5 h [%] |
| --- | --- |
| O=C(CCS(=O)(=O)C1CCCC1)NCCc1cccnc1 | -6.71 |
| CC(C)c1ncc(CN2C[C@@H](CN3CCCCC3)[C@@H](CO)C2)cn1 | -2.58 |
| COCCO[C@H]1CCN(C(=O)c2cnccn2)[C@H]1Cc1ccncc1 | -1.32 |
| CC(C)(O)CCc1cccc(C(=O)N2CCC[C@H]2CN2CCCC2)c1 | 32.8 |
| CCOCCN1CCc2cncnc2C1 | 27.9 |
| O=C([C@@H]1CCO[C@@H]2CCN(Cc3cccnc3)C[C@H]21)N1CCCCO1 | -13.8 |
| Cc1cnn(CC2CN(Cc3nc4ccccc4o3)CCO2)c1 (centres undefined) | -12.1 |
| COc1ccc(C2SC(C)=Nc3c2c(=O)[nH]n3C2CCCC2)cc1O (centres undefined) | -18.9 |
| O=C(NC1CCCC1)N1CCCCC1c1nc(C2CC2)no1 (centres undefined) | -15.1 |
| Cc1cc(CNC(=O)NCC(O)c2cccc(F)c2)no1 (centres undefined) | -10.8 |
| O=C(NCc1ccc(N2CCCC2)nc1)N1CCc2sccc2C1 | -0.866 |
| O=C(c1ccoc1)N1CCOCC2(CCN(Cc3cccs3)C2)C1 (centres undefined) | -12.4 |
| CC(C)N1CCCC2(CCN(c3nccc(C(F)(F)F)n3)C2)C1=O (centres undefined) | -3.02 |
| Cc1nccc(-c2cccc(NCC(=O)N3CCCCCCC3)c2)n1 | 17.3 |
| COc1ccc(CNC(=O)Nc2cccnc2N2CCCC2)cc1OC | 20.8 |
| O=C(CN1CCOc2ccccc2C1)NCc1cc2n(n1)CCCNC2 | -2.45 |
| CN(C)CC(=O)N1CCOC2(CCCN(c3ncccc3F)C2)C1 (centres undefined) | 4.23 |
| Cc1nc(C2CN(C)CCO2)cc(N2CCC(CO)CC2)n1 (centres undefined) | -4.15 |
| COc1ccnc(N2CCN(CC(O)CN3CCOCC3)CC2)n1 (centres undefined) | -8.1 |
| CC(C)c1nc2n(n1)CC(NCC(=O)NCCC1=CCCCC1)CC2 (centres undefined) | -0.816 |
| Cc1cc(C)nc(N2CCOC(c3cc(CCO)[nH]n3)C2)n1 (centres undefined) | -8.46 |
| COc1c(CNCCNC(=O)c2cccs2)c(C)nn1C | -10.5 |
| O=C(c1ccc(S(=O)(=O)NCc2ccncc2)cc1)N1CCNCC1 | -6.98 |

| Compound | cytotoxicity at 70.5 h [%] |
| --- | --- |
| C[C@@H]1CN(S(=O)(=O)c2ccc(F)cc2Cl)C[C@]1(C)O | -0.172 |
| O=C(NCCN1CCCC1)c1cc2c(s1)CCN2C(=O)c1ccccc1 | -8.31 |
| O=C1CC2(CCCCN2C(=O)c2ccccc2)CN1CC1CC1 (centres undefined) | 4.75 |
| CC(C)(O)CCc1cccc(C(=O)N[C@@H](CO)C(N)=O)c1 | 3.89 |
| CCC(C(=O)N(C)Cc1cc(COC)[nH]n1)n1cccn1 (centres undefined) | -11.5 |
| CC(C)(C)n1cc(C(=O)N2CCN(Cc3ccco3)CC2)cn1 | -8.01 |
| Cc1cn2nc(Sc3nnc(C(C)C)n3C)sc2n1 | -10.9 |
| Cn1cccc1C(=O)N1CCC2(CCCN2S(C)(=O)=O)CC1 | -8.2 |
| CCSCCOC(=O)CCCc1ccc2c(c1)CC(=O)N2 | -12.3 |
| CC(C)NC(=O)C1CCC2(CCN(c3ncccn3)CC2)CO1 (centres undefined) | -9.99 |
| CCC(=O)NCCc1cc(N2CCN(C(C)=O)CC2)nc(C2CC2)n1 | -1.36 |
| COC(=O)CC(NC(=O)CCCn1cccn1)c1ccc(Cl)cc1 (centres undefined) | -14.1 |
| Cc1csc(N2CCN(C(=O)c3ccc(C)s3)CC2)n1 | 5.75 |
| Cc1cn2c(n1)C(CNCc1cccc3c1OCO3)CCC2 (centres undefined) | 23.3 |
| CCCOC1CCCN(c2nc(COC)nc3c2cnn3C)C1 (centres undefined) | -19 |
| CC1(c2ccccc2)CCC(=O)N(CCN2CCOCC2)C1 (centres undefined) | -5.69 |
| c1c[nH]c(-c2cn(CCSc3cnn[nH]3)nn2)n1 | -11.9 |
| CC(C)NC(=O)Cn1cc(-c2ccccc2)cn1 | 1.95 |
| CN1CCOC[C@H]1c1nc(-c2ccc(F)cc2F)c[nH]1 | -0.919 |
| CC(C)COCC(NC(=O)Cc1ccn[nH]1)c1ccco1 (centres undefined) | -6.61 |
| COCCN1CCCC1c1nccnc1Nc1ncc(C)s1 (centres undefined) | -1.57 |
| Cc1cnn(CC2CCCN2C(=O)CCc2ccco2)c1 (centres undefined) | -6.55 |
| CSCc1noc(Cn2ccc3ccccc3c2=O)n1 | -10.8 |

| Compound | cytotoxicity at 70.5 h [%] |
| --- | --- |
| Cc1ccc(C(O)CNC(=O)NCc2nc(C)cs2)cc1 (centres undefined) | -2.07 |
| Cc1cccc(CN2CCOCC2c2[nH]ncc2C)n1 (centres undefined) | -2.39 |
| O=C(c1cscn1)N1CCC(Cn2cc(-c3ccsc3)nn2)CC1 | -8.02 |
| CC(C(=O)N1CCc2ccccc2C1)N(C)Cc1cscn1 (centres undefined) | -4.2 |
| Cc1cc(N2CCC(c3ncc[nH]3)CC2)c2ccccc2n1 | -7.19 |
| CCc1cc(N2CCC(N3CCSCC3)CC2)n2nccc2n1 | -7.5 |
| CN1CCN(C(=O)c2cn3ccsc3n2)[C@H]2CS(=O)(=O)C[C@H]21 | -11.3 |
| Cc1cccc2[nH]c(-c3cn(C4CCNCC4)nn3)nc12 | -3.11 |
| CCC(=O)N1CCC2(CC1)CC(CC(=O)NC1CC1)c1ccccc1O2 (centres undefined) | 5.58 |
| Cc1ncc(S(=O)(=O)N(CC(C)C)c2cccc(O)c2)s1 | -1.45 |
| Cc1nc(C)n(CC2CN(CCC(=O)N3CCCCC3)CCO2)n1 (centres undefined) | -6.29 |
| O=S1(=O)C[C@@H]2[C@H](C1)N(S(=O)(=O)N1CCCC1)CCN2Cc1ccccc1 | -5.47 |
| Cc1cccc(CNC(=O)NCC2CCN(Cc3ncc[nH]3)C2)c1 (centres undefined) | -16.7 |
| CC(=O)NCC(=O)N1CCN(Cc2cccnc2)c2ncccc2C1 | -15.1 |
| COC(=O)N1CCC(Nc2cccc(F)c2C(C)=O)C1 (centres undefined) | -9.32 |
| O=C(NCCCn1ccnc1)C1COCC(=O)N1Cc1ccccc1 (centres undefined) | -16 |
| CNC(=O)CCN1CCCC1c1ccccc1Br (centres undefined) | 28 |
| CC(C)N[C@@H]1CO[C@H](CNC(=O)c2ccccc2)[C@H]1O | -0.106 |
| CC(O)CN1CCN(C(=O)c2ccnc(N(C)C)c2)CC1 (centres undefined) | 14.1 |
| COCCc1noc(CNCC2CCCN2c2cccnn2)n1 (centres undefined) | 2.33 |
| NC(=O)COc1ccc(CNCc2ccc(F)cc2)cc1 | -4.15 |
| CN(Cc1nccn1C)C1CCCN(CCCc2ccccc2)C1 (centres undefined) | -6.62 |
| CC(C)c1nccn1C1CCCN(C(=O)c2cnn(C)c2C2CC2)C1 (centres undefined) | 5.54 |

| Compound | cytotoxicity at 70.5 h [%] |
| --- | --- |
| CC(C)(N)C(=O)N1CCCC(C(=O)c2ccc(C(C)(C)C)cc2)C1 (centres undefined) | -3.3 |
| O=C1COc2ccc(C(=O)NS(=O)(=O)c3ccc(F)cc3F)cc2N1 | -0.102 |
| Cn1ccc(-c2cc(C(=O)N3CCOCC3)c3ccccn23)n1 | 3.83 |
| Cc1nc(C)n(C2CCCN(C(=O)c3ccc4c(c3)COC4)C2)n1 (centres undefined) | 0.389 |
| O=C(c1cc(Cl)c2c(c1)OCO2)N1CCN(c2nccs2)CC1 | 1.39 |
| CC(C)(C)CC(=O)NC[C@H]1OC[C@@H](NC2CCC(F)(F)CC2)[C@@H]1O | -5.07 |
| c1nc(N2CCN(Cc3nnnn3C3CC3)CC2)c2sccc2n1 | 2.44 |
| CCc1csc(CNC2CCN(c3ccc(C)cc3)CC2)n1 | 2.12 |
| O=C(Cc1c(F)cccc1Cl)N1CCC(Nc2cccnn2)CC1 | -1.25 |
| COc1cccc(CC(=O)N2CC[C@@H]3CN(C)S(=O)(=O)[C@@H]3CC2)c1 | -3.48 |
| Cc1ccc(S(=O)(=O)NC(=O)CCC(F)(F)F)cc1N(C)C | -1.96 |
| CC(C)N1CC(C(=O)NCc2cccnc2-n2cccn2)CC1=O (centres undefined) | -11 |
| Cn1cc(C(=O)CC2CCCN2C(=O)c2cccc3ncccc23)cn1 (centres undefined) | 14.5 |
| Cc1nc(C2CCCN(C(=O)CN3CCCNC3=O)C2)sc1C (centres undefined) | -8.3 |
| O=C(O)[C@@H]1CN(C(=O)Cc2ccccc2Cl)C[C@H]1C1CC1 | -15.8 |
| Cn1cccc1C(=O)N1CCN2C[C@H](Oc3cccnc3)C[C@H]2C1 | 21.7 |
| Cc1ccc2c(c1)C1(CC(=O)Nc3[nH]ncc31)C(=O)N2C (centres undefined) | -21.9 |
| Cc1ccc(S(=O)(=O)N2C[C@@H]3CCN[C@@H]3C2)cc1 | -4.81 |
| COCCCN1CC2(CCCN(c3ncc(Cl)cc3F)C2)CCC1=O (centres undefined) | 3.03 |
| Cc1nccn1CC1CCCN(C(=O)Cc2ccsc2)C1 (centres undefined) | -17.7 |
| CN(C)CCN1C(=O)CCCC12CCCN(Cc1cccs1)C2 (centres undefined) | -9.38 |
| COc1ccc(CN2CC(=O)N(c3ccc(C)cc3)CC2C)cc1O (centres undefined) | -2.16 |
| Fc1ccc(CN2CCCC2Cn2cncn2)c2ncccc12 (centres undefined) | 2.94 |

| Compound | cytotoxicity at 70.5 h [%] |
| --- | --- |
| CCCSCC(=O)N1C[C@H]2CC[C@@H]1CN(Cc1cccnc1)C2 | 6.46 |
| COCCn1ccc2c(cnc3nc(SC)nn32)c1=O | -4.98 |
| Cc1ccoc1C(=O)N1CCn2cc(CN3CCCC3)nc2C1 | -4.12 |
| Cc1cc(C2CCCN2Cc2cc(-c3ccco3)on2)on1 (centres undefined) | -14.5 |
| Cc1oc(CN(C)C(=O)c2ccc(C(F)(F)F)cc2)cc1C(=O)O | -6.23 |
| O=C(NCc1ccccc1F)NC1CCCN(c2ncccn2)C1 (centres undefined) | -4.69 |
| O=C(NC1CC1)NC(c1cc(F)ccc1F)C1CC1 (centres undefined) | -5.9 |
| O=C(c1ccco1)N(CC(F)(F)F)C1CCCOC1 (centres undefined) | -2.62 |
| c1ccc(C2CCCN(c3ncnc4c3CCNC4)CC2)cc1 (centres undefined) | 2.81 |
| Cc1cccc2c1OCCCC2NCc1nccn1Cc1ccccc1 (centres undefined) | -5.77 |
| Cc1nc2c(c(=O)n1C)CN(C(=O)C1CCN(C(=O)C3CCC3)CC1)C2 | -1.69 |
| CN(CC(=O)Nc1ccc(Br)cn1)C(=O)C(C)(C)C | -6.91 |
| CC(CS(C)(=O)=O)N(C)C(=O)NCCCc1ccc(Cl)cc1 (centres undefined) | -3.65 |
| COc1cc(C(=O)NCC2(N(C)C)CCN(C)CC2)c2ccccc2n1 | 0.627 |
| CCN1CCC(NC(=O)CN2CCCCC2Cn2cncn2)CC1 (centres undefined) | 0.615 |
| c1ccc(NCc2cnc3n2CCN(CC2CCOC2)CC3)nc1 (centres undefined) | -8.55 |
| O=C(c1cccnc1)N1CCCC(c2ncncc2-c2ccncc2)C1 (centres undefined) | -5.25 |
| Cc1noc(C(C)N2CCN(CCCN3CCCC3=O)CC2)n1 (centres undefined) | -11.4 |
| c1cnc(N2CCCC3(CCN(c4ncccn4)C3)C2)nc1 (centres undefined) | 26.5 |
| CCC(C)(CC(=O)OC)NCc1noc(C)n1 (centres undefined) | 26.6 |
| CN(Cc1nc2ccccc2[nH]1)C(=O)CN(C)c1ccc(Cl)cn1 | 7.7 |
| Cc1ncncc1C(=O)N1CCOC(C)(C(=O)NC2CCCC2)C1 (centres undefined) | -1.33 |
